“And” between values parts separate entries of the source, which are not always exact repeats. Equal values may be shown once. After the bases stand the sugars from the 5' end (letter, count) and the backbone: PS all phosphorothioate, else s phosphorothioate and o phosphodiester by linkage. Methylation of C is not given here. k = constrained ethyl (cEt); d = 2'-deoxy (DNA)
Each sequence was assayed against MALAT1. Conditions: ASO, A431, 0.005 µM.

First: TACAACACCCGGAAAT (sugars k3 d10 k3, PS)
Second: TACACCTTGAGTCATT (sugars k3 d10 k3, PS)
The target mRNA inhibition of the first is lower: 16% for the first, 38% for the second.

First: TACACTCACTAGAACA (sugars k3 d10 k3, PS)
Second: TACATCAAGGATGTAT (sugars k3 d10 k3, PS)
The target mRNA inhibition of the first is higher: 3% for the first, 2% for the second.

Going from TACCACCTTTTGAAGG (sugars k3 d10 k3, PS) to TACCACTCCCAATTAA (sugars k3 d10 k3, PS), the target mRNA inhibition falls from 13% to 12%.

Going from TACCACTCTAAGATTG (sugars k3 d10 k3, PS) to TACCATAAGTAAGTTC (sugars k3 d10 k3, PS), the target mRNA inhibition falls from 5% to 4%.

Going from TACCGTTTTTCAGCTT (sugars k3 d10 k3, PS) to TACCTTGAAACCGATT (sugars k3 d10 k3, PS), the target mRNA inhibition rises from -31% to 36%.

Going from TACTCTGATCATAATC (sugars k3 d10 k3, PS) to TACTGAAAACTCCCCC (sugars k3 d10 k3, PS), the target mRNA inhibition rises from 17% to 22%.

First: TACTTGTCTTAGCTTG (sugars k3 d10 k3, PS)
Second: TACTTTCCATTACGCA (sugars k3 d10 k3, PS)
The target mRNA inhibition of the first is higher: 51% for the first, 16% for the second.

Compared with TAGCTTCCTTCACCAA (sugars k3 d10 k3, PS), TAGGGCTTCTCAAAAC (sugars k3 d10 k3, PS) is higher in target mRNA inhibition: -1% for the first, 4% for the second.

Going from TAGTGGTTCCCAATCC (sugars k3 d10 k3, PS) to TAGTTCAACCCACCAA (sugars k3 d10 k3, PS), the target mRNA inhibition falls from 14% to -14%.

First: TAGTTGTATTAATCTC (sugars k3 d10 k3, PS)
Second: TAGTTTACCACCTTTT (sugars k3 d10 k3, PS)
The target mRNA inhibition of the first is higher: 38% for the first, 15% for the second.

Compared with TATGGAACTTGAATGC (sugars k3 d10 k3, PS), TATTCCCCAATGGAGG (sugars k3 d10 k3, PS) is lower in target mRNA inhibition: 24% for the first, 17% for the second.

Going from TATTCTTTTCTTCGCC (sugars k3 d10 k3, PS) to TCAACTGGGAATACTC (sugars k3 d10 k3, PS), the target mRNA inhibition falls from 49% to 17%.

First: TCAAGGTCTTTTAATC (sugars k3 d10 k3, PS)
Second: TCAATGCCTACCGCAC (sugars k3 d10 k3, PS)
The target mRNA inhibition of the first is higher: 41% for the first, 3% for the second.

First: TCACAAAACCCCCGGA (sugars k3 d10 k3, PS)
Second: TCACCAAGGAGCTGTT (sugars k3 d10 k3, PS)
The target mRNA inhibition of the first is higher: 16% for the first, 12% for the second.

Going from TCAGGCGAGCTGAGGC (sugars k3 d10 k3, PS) to TCAGGGTGAGGAAGTA (sugars k3 d10 k3, PS), the target mRNA inhibition rises from 7% to 50%.

Going from TCATACACTCACTAGA (sugars k3 d10 k3, PS) to TCATACTGCCAGGCTG (sugars k3 d10 k3, PS), the target mRNA inhibition rises from -22% to 29%.

First: TCATATTTTAAACGGG (sugars k3 d10 k3, PS)
Second: TCATCAAACACCTCAC (sugars k3 d10 k3, PS)
The target mRNA inhibition of the first is higher: 23% for the first, -8% for the second.

First: TCATCAAACACTGGTT (sugars k3 d10 k3, PS)
Second: TCCAAAAGAGAACCAC (sugars k3 d10 k3, PS)
The target mRNA inhibition of the first is higher: 36% for the first, 21% for the second.

Compared with TCCAAGCTACTGGCTG (sugars k3 d10 k3, PS), TCCAATGGACATCTCT (sugars k3 d10 k3, PS) is higher in target mRNA inhibition: 20% for the first, 25% for the second.

Compared with TCCAGGATTAATGTAG (sugars k3 d10 k3, PS), TCCATTACGCAACTGA (sugars k3 d10 k3, PS) is lower in target mRNA inhibition: 48% for the first, 9% for the second.

First: TCCCACCCAGCATTAC (sugars k3 d10 k3, PS)
Second: TCCCTATATAAGGTCA (sugars k3 d10 k3, PS)
The target mRNA inhibition of the first is higher: 27% for the first, 5% for the second.

First: TCCGCCGCCTCTTAAA (sugars k3 d10 k3, PS)
Second: TCCGCTAAGATGCTAG (sugars k3 d10 k3, PS)
The target mRNA inhibition of the first is higher: 26% for the first, 15% for the second.

Compared with TCCGCTCAAATCCTGA (sugars k3 d10 k3, PS), TCCTAGCTTCATCAAA (sugars k3 d10 k3, PS) is lower in target mRNA inhibition: 26% for the first, 7% for the second.

Going from TCCTCAAGCTCCGCCT (sugars k3 d10 k3, PS) to TCCTGCATGTAAGAAT (sugars k3 d10 k3, PS), the target mRNA inhibition falls from 23% to 15%.

Compared with TCCTTCACCAAATCGC (sugars k3 d10 k3, PS), TCGCACTGGCTCCTGG (sugars k3 d10 k3, PS) is higher in target mRNA inhibition: 36% for the first, 42% for the second.

First: TCGCCATGGAAAGCGA (sugars k3 d10 k3, PS)
Second: TCGCTTTTATTCTGCT (sugars k3 d10 k3, PS)
The target mRNA inhibition of the first is lower: 15% for the first, 22% for the second.

Going from TCTAATCACTGTCAAT (sugars k3 d10 k3, PS) to TCTACCGTTTTTCAGC (sugars k3 d10 k3, PS), the target mRNA inhibition falls from 32% to 26%.

First: TCTAGACAGACCTAAG (sugars k3 d10 k3, PS)
Second: TCTATTGCCATGTGCC (sugars k3 d10 k3, PS)
The target mRNA inhibition of the first is lower: -6% for the first, 41% for the second.

Compared with TCTCGGGCTGCAGGCT (sugars k3 d10 k3, PS), TCTCTAACCCAGTTTG (sugars k3 d10 k3, PS) is lower in target mRNA inhibition: 20% for the first, 16% for the second.

Compared with TCTGAAGAATACCATC (sugars k3 d10 k3, PS), TCTGATCATAATCTCC (sugars k3 d10 k3, PS) is higher in target mRNA inhibition: 15% for the first, 39% for the second.

Compared with TCTGGAAAAGCTAGGG (sugars k3 d10 k3, PS), TCTGTGCTAGATCAAA (sugars k3 d10 k3, PS) is higher in target mRNA inhibition: -21% for the first, 61% for the second.

First: TCTTCTAAATTGGTTC (sugars k3 d10 k3, PS)
Second: TGAAGAATACCATCTG (sugars k3 d10 k3, PS)
The target mRNA inhibition of the first is higher: 49% for the first, 30% for the second.

First: TGAAGGATGAAATGCC (sugars k3 d10 k3, PS)
Second: TGACACTTCTCTTGAC (sugars k3 d10 k3, PS)
The target mRNA inhibition of the first is lower: 29% for the first, 30% for the second.

First: TGACCTTAGGATAATA (sugars k3 d10 k3, PS)
Second: TGAGTGAAGTGTACTA (sugars k3 d10 k3, PS)
The target mRNA inhibition of the first is higher: 62% for the first, 42% for the second.

First: TGATAACGAAGAGATA (sugars k3 d10 k3, PS)
Second: TGATAGTTCAGGGCTT (sugars k3 d10 k3, PS)
The target mRNA inhibition of the first is higher: 15% for the first, 9% for the second.

Compared with TGATCATAATCTCCCA (sugars k3 d10 k3, PS), TGCACTAAAGATCACT (sugars k3 d10 k3, PS) is lower in target mRNA inhibition: 43% for the first, 37% for the second.

Going from TGCCAAGCCAAGCCGC (sugars k3 d10 k3, PS) to TGCCTTTACTTATCAA (sugars k3 d10 k3, PS), the target mRNA inhibition rises from 13% to 26%.

First: TGCTCCTCAGTCCTAG (sugars k3 d10 k3, PS)
Second: TGCTGTTACCTCCCAC (sugars k3 d10 k3, PS)
The target mRNA inhibition of the first is higher: 26% for the first, 14% for the second.

First: TGGAAAGCGAGTTCAA (sugars k3 d10 k3, PS)
Second: TGGCCTACTCAAGCTC (sugars k3 d10 k3, PS)
The target mRNA inhibition of the first is higher: -4% for the first, -8% for the second.

Going from TGGGAATACTCTTCCA (sugars k3 d10 k3, PS) to TGGGAGTTACTTGCCA (sugars k3 d10 k3, PS), the target mRNA inhibition rises from 11% to 19%.

First: TGGTGAATTCAACTGG (sugars k3 d10 k3, PS)
Second: TGGTTAGGTATGAGCT (sugars k3 d10 k3, PS)
The target mRNA inhibition of the first is higher: 33% for the first, 4% for the second.

First: TGTAAACCTGTGGTGG (sugars k3 d10 k3, PS)
Second: TGTCAATAGTACTATA (sugars k3 d10 k3, PS)
The target mRNA inhibition of the first is higher: 48% for the first, 18% for the second.

Compared with TGTCAATTTATAGACC (sugars k3 d10 k3, PS), TGTGTTATGCCTGGTT (sugars k3 d10 k3, PS) is lower in target mRNA inhibition: 6% for the first, 1% for the second.

Compared with TGTTATGTTCACCTGA (sugars k3 d10 k3, PS), TTAACTTCCCCCAGCT (sugars k3 d10 k3, PS) is lower in target mRNA inhibition: 35% for the first, 0% for the second.

Compared with TTAAGAACTCCACAGC (sugars k3 d10 k3, PS), TTAAGACCAAGGGAGG (sugars k3 d10 k3, PS) is lower in target mRNA inhibition: 46% for the first, 29% for the second.

First: TTAATGCTAGTCCTCA (sugars k3 d10 k3, PS)
Second: TTAATGTCAGCCCAGT (sugars k3 d10 k3, PS)
The target mRNA inhibition of the first is higher: 39% for the first, 37% for the second.

Compared with TTACACATCCAAACTC (sugars k3 d10 k3, PS), TTACAGTTCTTGAACA (sugars k3 d10 k3, PS) is higher in target mRNA inhibition: 1% for the first, 25% for the second.

Compared with TTACCATAAGTAAGTT (sugars k3 d10 k3, PS), TTACTCTAATCACTGT (sugars k3 d10 k3, PS) is higher in target mRNA inhibition: -20% for the first, 33% for the second.

Going from TTACTTCCGTTACGAA (sugars k3 d10 k3, PS) to TTAGTAACCTATTGAC (sugars k3 d10 k3, PS), the target mRNA inhibition rises from -8% to 34%.

Going from TTAGTAGCTTTTTGAT (sugars k3 d10 k3, PS) to TTATCTAAATACCACC (sugars k3 d10 k3, PS), the target mRNA inhibition falls from 39% to 2%.

Going from TTATCTGCGGTTTCCT (sugars k3 d10 k3, PS) to TTCAAACTAAGCTACT (sugars k3 d10 k3, PS), the target mRNA inhibition falls from 45% to 31%.

First: TTCAAGCATTCCTTCG (sugars k3 d10 k3, PS)
Second: TTCAGGATCATTAAGC (sugars k3 d10 k3, PS)
The target mRNA inhibition of the first is higher: 62% for the first, 18% for the second.

TTCCACAGACCTCAAC (sugars k3 d10 k3, PS) was tested, and the target mRNA inhibition was -4%.

TCATCTCAACCTCCGT (sugars k3 d10 k3, PS) was tested, and the target mRNA inhibition was 57% and 49%.
TCCGTCATGTTTTAGA (sugars k3 d10 k3, PS) was tested, and the target mRNA inhibition was 50% and 48%.
With TCCGTTACGAAAGTCC (sugars k3 d10 k3, PS) the target mRNA inhibition was 64% and 59% and 50%.
TGTACTATCCCATCAC (sugars k3 d10 k3, PS) was tested, and the target mRNA inhibition was 51% and 71%.
TGTTTAAGTCACCTTC (sugars k3 d10 k3, PS) was tested, and the target mRNA inhibition was 74% and 63%.
TTAACAATTTGCAGGC (sugars k3 d10 k3, PS) was tested, and the target mRNA inhibition was 66% and 79%.
In the case of TTATTTAGAGGGCCTC (sugars k3 d10 k3, PS), the target mRNA inhibition is reported as 57% and 72%.
With TTCAAGCACCGCTTGA (sugars k3 d10 k3, PS) the target mRNA inhibition was 12% and 25%.
For TTCAGACAAGATTCAT (sugars k3 d10 k3, PS), the target mRNA inhibition was 51% and 37%.
